Here are results for eleven compounds from US20260103458A1, “Inhibitors of CDK8 and CDK19” (University of Dundee, priority 2022, published 2026).

One assay has as its target T1, CDK8 (Homo sapiens, UniProt P49336).
T1 construct: made in house; host or cells: E. coli BL21-derived host (T7 phage display) or HEK-293 cells
Put plainly: Kinase competition binding assay (Kd, qPCR readout), CDK8. The conditions noted are these: in vitro binding; 11-point 3-fold dilution series; read-out: pKd (CDK8) (converted). The protocol: (§1) Compounds 1 to 11 were tested for their in vitro binding activity against CDK8 and CDK19.
(§2) Kinase assays: Kinase-tagged T7 phage strains were prepared in an E. coli host derived from the BL21 strain. E. coli were grown to log-phase and infected with T7 phage and incubated with shaking at 32° C. until lysis. The lysates were centrifuged and filtered to remove cell debris. The remaining kinases were produced in HEK-293 cells and subsequently tagged with DNA for qPCR detection. Streptavidin-coated magnetic beads were treated with biotinylated small molecule ligands for 30 minutes at room temperature to generate affinity resins for kinase assays. The liganded beads were blocked with excess biotin and washed with blocking buffer (SeaBlock (Pierce), 1% BSA, 0.05% Tween 20, 1 mM DTT) to remove unbound ligand and to reduce non-specific binding. Binding reactions were assembled by combining kinases, liganded affinity beads, and test compounds in 1× binding buffer (20% SeaBlock, 0.17×PBS, 0.05% Tween 20, 6 mM DTT). Test compounds were prepared as 111× stocks in 100% DMSO. Kds were determined using an 11-point 3-fold compound dilution series with three DMSO control points. All compounds for Kd measurements are distributed by acoustic transfer (non-contact dispensing) in 100% DMSO. The compounds were then diluted directly into the assays such that the final concentration of DMSO was 0.9%. All reactions performed in polypropylene 384-well plate. Each was a final volume of 0.02 ml. The assay plates were incubated at room temperature with shaking for 1 hour and the affinity beads were washed with wash buffer (1×PBS, 0.05% Tween 20). The beads were then re-suspended in elution buffer (1×PBS, 0.05% Tween 20, 0.5 μM nonbiotinylated affinity ligand) and incubated at room temperature with shaking for 30 minutes. The kinase concentration in the eluates was measured by qPCR.
(§3) Compound handling: An 11-point 3-fold serial dilution of each test compound was prepared in 100% DMSO at 100× final test concentration and subsequently diluted to 1× in the assay (final DMSO concentration=1%). Most Kds were determined using a compound top concentration=30,000 nM. If the initial Kd determined was <0.5 nM (the lowest concentration tested), the measurement was repeated with a serial dilution starting at a lower top concentration.
(§4) Binding constants: Binding constants (Kds) were calculated with a standard dose-response curve using the Hill equation: […]
(§5) The Hill Slope was set to −1.
(§6) Curves were fitted using a non-linear least square fit with the Levenberg-Marquardt algorithm.
A general note: Quantitative PCR measures a nucleic acid by following its amplification.

For another assay, the target named is T2, CDK19 (Homo sapiens, UniProt Q9BWU1).
T2 construct: made in house; host or cells: E. coli BL21-derived host (T7 phage display) or HEK-293 cells
T2 sequence (Q9BWU1 whole entry): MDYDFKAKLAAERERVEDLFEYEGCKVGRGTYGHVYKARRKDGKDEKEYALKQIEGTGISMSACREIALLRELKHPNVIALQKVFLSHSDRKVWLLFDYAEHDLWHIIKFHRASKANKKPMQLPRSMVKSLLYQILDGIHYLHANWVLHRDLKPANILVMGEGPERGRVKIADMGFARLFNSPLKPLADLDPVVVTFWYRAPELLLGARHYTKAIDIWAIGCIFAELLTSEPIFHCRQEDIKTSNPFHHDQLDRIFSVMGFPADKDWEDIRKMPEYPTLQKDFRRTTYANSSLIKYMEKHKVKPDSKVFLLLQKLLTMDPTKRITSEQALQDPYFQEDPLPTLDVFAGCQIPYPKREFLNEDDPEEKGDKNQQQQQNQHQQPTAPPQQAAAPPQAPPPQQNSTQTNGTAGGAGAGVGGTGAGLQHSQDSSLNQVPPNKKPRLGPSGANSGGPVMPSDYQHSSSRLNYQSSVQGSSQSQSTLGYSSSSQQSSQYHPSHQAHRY
Put plainly: Kinase competition binding assay (Kd, qPCR readout), CDK19. As to conditions: in vitro binding; 11-point 3-fold dilution series; read-out: pKd (CDK19) (converted). The procedure:
as §1, §2, §3, §4, §5, §6

T1 sequence (P49336 whole entry): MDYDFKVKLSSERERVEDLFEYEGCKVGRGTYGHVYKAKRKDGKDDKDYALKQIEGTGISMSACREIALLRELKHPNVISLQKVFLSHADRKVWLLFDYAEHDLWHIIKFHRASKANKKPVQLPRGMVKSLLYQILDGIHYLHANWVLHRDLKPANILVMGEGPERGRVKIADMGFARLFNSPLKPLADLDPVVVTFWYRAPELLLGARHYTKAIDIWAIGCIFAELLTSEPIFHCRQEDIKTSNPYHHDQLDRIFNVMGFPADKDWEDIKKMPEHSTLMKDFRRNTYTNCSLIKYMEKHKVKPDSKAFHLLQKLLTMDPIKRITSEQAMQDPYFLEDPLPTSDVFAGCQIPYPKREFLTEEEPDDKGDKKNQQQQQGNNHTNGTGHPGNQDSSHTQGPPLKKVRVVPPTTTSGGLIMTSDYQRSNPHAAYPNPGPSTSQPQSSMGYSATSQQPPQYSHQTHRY

As to `CN(C)CCn1cnc(C(=O)NC2CCN(c3snc4ccccc34)CC2)c1` [Compound 9, N-(1-(benzo[c]isothiazol-3-yl)piperidin-4-yl)-1-(2-(dimethylamino)ethyl)-1H-imidazole-4-carboxamide], the Kd at CDK8 is 3.98 µM; on CDK19, 1.26 µM.

Consider `CN(C)C(=O)Cn1cnc(C(=O)NC2CCN(c3snc4ccc(F)cc34)CC2)c1` [Compound 8, 1-(2-(dimethylamino)-2-oxoethyl)-N-(1-(5-fluorobenzo[c]isothiazol-3-yl)piperidin-4-yl)-1H-imidazole-4-carboxamide], for which the figures for the Kd at CDK8 and on CDK19 were 0.501 µM and 0.316 µM, respectively.

With `CNC1CCN(c2snc3ccccc23)CC1` [Compound 1, 1-(benzo[c]isothiazol-3-yl)-N-methylpiperidin-4-amine], the Kd at CDK8 and at CDK19 was 31.6 µM in each case.

Regarding `O=C(NC1CCN(c2snc3ccccc23)CC1)c1cn(Cc2cnccn2)cn1` [Compound 5, N-(1-(benzo[c]isothiazol-3-yl)piperidin-4-yl)-1-(pyrazin-2-ylmethyl)-1H-imidazole-4-carboxamide], the results for the Kd on CDK8 and on CDK19 were 0.2 µM and 0.0794 µM, respectively.

`O=C(NC1CCN(c2snc3ccccc23)CC1)c1cn(CC2COC2)cn1` [Compound 10, N-(1-(benzo[c]isothiazol-3-yl)piperidin-4-yl)-1-(oxetan-3-ylmethyl)-1H-imidazole-4-carboxamide]: the Kd on CDK8 was 0.316 µM; at CDK19, 0.1 µM.

For the compound `CN(C)C(=O)Cn1cnc(C(=O)NC2CCN(c3snc4ccccc34)CC2)c1` [Compound 7, N-(1-(benzo[c]isothiazol-3-yl)piperidin-4-yl)-1-(2-(dimethylamino)-2-oxoethyl)-1H-imidazole-4-carboxamide], the values for the Kd on CDK8 and on CDK19 were 0.631 µM and 0.2 µM, respectively.

As to `Cn1cnc(C(=O)NC2CCN(c3snc4ccccc34)CC2)c1` [Compound 3, N-(1-(benzo[c]isothiazol-3-yl)piperidin-4-yl)-1-methyl-1H-imidazole-4-carboxamide], the results for the Kd on CDK8 and on CDK19 were 0.398 µM and 0.158 µM, respectively.

With `Cn1cnc(C(=O)NC2CCN(c3snc4ccc(F)cc34)CC2)c1` [Compound 4, N-(1-(5-fluorobenzo[c]isothiazol-3-yl)piperidin-4-yl)-1-methyl-1H-imidazole-4-carboxamide], the Kd on CDK8 was 0.0631 µM; at CDK19, 0.0501 µM.

With `O=C(NC1CCN(c2snc3ccc(F)cc23)CC1)c1cn(Cc2cnccn2)cn1` [Compound 6, N-(1-(5-fluorobenzo[c]isothiazol-3-yl)piperidin-4-yl)-1-(pyrazin-2-ylmethyl)-1H-imidazole-4-carboxamide], the Kd is 0.0251 µM at CDK8 and 0.02 µM on CDK19.

`CC(=O)NC1CCN(c2snc3ccccc23)CC1` [Compound 2, N-(1-(benzo[c]isothiazol-3-yl)piperidin-4-yl)acetamide]: the Kd on CDK8 is 10 µM; at CDK19 it was 6.31 µM.

Regarding `O=C(NC1CCN(c2snc3ccccc23)CC1)c1cn(Cc2ncccn2)cn1` [Compound 11, N-(1-(benzo[c]isothiazol-3-yl)piperidin-4-yl)-1-(pyrimidin-2-ylmethyl)-1H-imidazole-4-carboxamide], the values for the Kd at CDK8 and at CDK19 were 0.501 µM and 0.1 µM, respectively.
